Experimental data as given in PubChem BioAssay (NCI).
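Method: 48-hour compound exposure of cells in 96-well plates, five concentrations, linear interpolation of endpoints. GI50 is the concentration that inhibits growth by half. TGI: total growth inhibition.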

Legend:
Experiment in all cases: DTP human tumour cell line panel, 48 h
HT29 colon = test system: HT29 colon
NCI-H460 lung = test system: NCI-H460 lung
SK-OV-3 ovarian = test system: SK-OV-3 ovarian
SF-268 CNS = test system: SF-268 CNS
NCI/ADR-RES ovarian = test system: NCI/ADR-RES ovarian
COLO 205 colon = test system: COLO 205 colon
DU-145 prostate = test system: DU-145 prostate
NCI-H23 lung = test system: NCI-H23 lung
HOP-62 NSCLC = test system: HOP-62 NSCLC
MDA-MB-435 = test system: MDA-MB-435

Compound | GI50 (HT29 colon) | TGI (HT29 colon) | GI50 (NCI-H460 lung) | TGI (NCI-H460 lung) | GI50 (SK-OV-3 ovarian) | TGI (SK-OV-3 ovarian) | GI50 (SF-268 CNS) | TGI (SF-268 CNS) | GI50 (NCI/ADR-RES ovarian) | TGI (NCI/ADR-RES ovarian) | GI50 (COLO 205 colon) | TGI (COLO 205 colon) | GI50 (DU-145 prostate) | TGI (DU-145 prostate) | GI50 (NCI-H23 lung) | TGI (NCI-H23 lung) | GI50 (HOP-62 NSCLC) | TGI (HOP-62 NSCLC) | GI50 (MDA-MB-435) | TGI (MDA-MB-435)
C(#Cc1ccccc1C#Cc1ccccn1)c1ccccn1 | 30.3 µM | > 100 µM | 23.1 µM | 58.8 µM | 16.5 µM | 37.9 µM | 17.7 µM | 35.7 µM | 5.45 µM | 29.4 µM | 16.9 µM | 46.4 µM | 19.8 µM | 38 µM | 19 µM | 46.4 µM | 25.6 µM | > 100 µM | 8.43 µM | 22.5 µM
CC(C)N(Cc1ccccc1)S(=O)(=O)c1n[nH]c(C(C)(C)C)n1 | – | > 100 µM | – | > 100 µM | – | > 100 µM | – | > 100 µM | – | > 100 µM | – | > 100 µM | – | > 100 µM | – | > 100 µM | – | > 100 µM | – | > 100 µM
CN(C)c1ccc(N=C(C#N)c2nc(N)nc(N3CCN(c4ccccc4)CC3)n2)cc1 | 21.2 µM | > 50 µM | 14.7 µM | > 37 µM | 16.6 µM | > 35.4 µM | 11.7 µM | 34.9 µM | 34.2 µM | > 50 µM | > 42.4 µM | > 50 µM | 11.6 µM | > 28.1 µM | > 50 µM | > 50 µM | > 28.6 µM | > 50 µM | > 43.9 µM | > 50 µM
CC[C@H](C)[C@H](NC(=O)c1nccn1C)C(=O)N(C)[C@H](C[C@@H](OC(C)=O)c1nc(C(=O)N[C@@H](Cc2ccccc2)C[C@H](C)C(=O)OC)cs1)C(C)C | 1 µM | 11.1 µM | 1.22 µM | > 33.3 µM | 1.72 µM | > 33.3 µM | 1.43 µM | > 33.3 µM | 3.18 µM | > 33.3 µM | 0.99 µM | 4.11 µM | 1.3 µM | > 33.3 µM | 1.36 µM | > 33.3 µM | 1.42 µM | > 33.3 µM | 0.0944 µM | 0.428 µM
COc1cc(N=Nc2cccc(S(N)(=O)=O)c2)c2ccccc2c1N | – | 31 µM | – | 25.7 µM | – | 30.7 µM | – | 31.9 µM | – | > 68.5 µM | – | 26.5 µM | – | 3.43 µM | – | 6.72 µM | – | 21.8 µM | – | 3.71 µM
N#Cc1c(NCc2ccccc2)nc(NCc2ccccc2)c(C#N)c1-c1cccc(O)c1 | 41.3 µM | > 100 µM | 14.9 µM | 31.4 µM | 7.79 µM | 46.5 µM | 19.5 µM | 46.5 µM | 13.8 µM | 48 µM | 36.7 µM | > 100 µM | 12.8 µM | 34.4 µM | 11 µM | 37.4 µM | 10.5 µM | 23.1 µM | 2.91 µM | 9.97 µM
O=C(Nc1ccc(-c2ccnc(Nc3ccc(N4CCOCC4)cc3)n2)cc1)C1CCCN1 (stereo not given) | 3.89 µM | 23.3 µM | 1.6 µM | 16.4 µM | 11.8 µM | 32.8 µM | 4.9 µM | 44.8 µM | 9.49 µM | 44.5 µM | 5.25 µM | 20.5 µM | 7.14 µM | 37.4 µM | 12.1 µM | 32.4 µM | 5.16 µM | 27.7 µM | 6.39 µM | 21.5 µM
C[C@H]1CC2=CC(=O)CC[C@]2(C)[C@H]2CC[C@@]3(C)[C@@H](CC[C@]3(C)O)[C@H]12 | 44.7 µM | > 100 µM | 30 µM | > 100 µM | 39.4 µM | > 100 µM | 33.3 µM | > 100 µM | 28.7 µM | > 86.5 µM | 15.8 µM | 36.1 µM | 45.7 µM | > 96.3 µM | 38.2 µM | > 100 µM | 33.5 µM | > 76.1 µM | 29.3 µM | > 88 µM
O=C(Nc1ccccc1C(=O)Nc1nccs1)c1ccccc1 | – | > 100 µM | – | > 100 µM | – | > 100 µM | – | 60.9 µM | – | > 100 µM | – | > 100 µM | – | > 100 µM | – | > 100 µM | – | > 100 µM | – | > 100 µM
CCCNc1cccc(-n2ncc3c(N/N=C/c4ccncc4)ncnc32)c1 | 14.9 µM | > 25 µM | 2.65 µM | > 25 µM | 6.92 µM | > 25 µM | 8.24 µM | > 25 µM | 1.93 µM | > 25 µM | > 25 µM | > 25 µM | > 25 µM | > 25 µM | > 25 µM | > 25 µM | 4.72 µM | > 25 µM | 0.757 µM | > 25 µM
CCN(CC)CCOc1nc2cc(OC)c(OC)cc2c2c1-c1ccc(OC)cc1C2=O | 1.67 µM | 3.11 µM | 1.22 µM | 2.72 µM | 13.2 µM | 26 µM | 4.93 µM | 21.9 µM | 13.2 µM | 29.8 µM | 11.5 µM | 24.6 µM | 5.56 µM | 18.3 µM | 12.5 µM | 27.9 µM | 10 µM | 22.2 µM | 13.3 µM | 26 µM
CS(=O)(=O)Nc1cc(-c2ccc3ncnc(Nc4cccc(Cl)c4F)c3c2)cnc1Cl | 3.3 µM | 38.4 µM | 4.09 µM | > 100 µM | 1.99 µM | 8.81 µM | 1.41 µM | 19.3 µM | 7.02 µM | 31.8 µM | 4.23 µM | 27.8 µM | 3.69 µM | 29 µM | 2.33 µM | 10.1 µM | 2.48 µM | 60.7 µM | 4.73 µM | 21.9 µM
N#Cc1ccc2c(c1)C(=O)c1c-2n(CCCN=[N+]=[N-])c(=O)c2cc([N+](=O)[O-])ccc12 | 32.1 µM | > 50 µM | 1.11 µM | > 50 µM | > 50 µM | > 50 µM | 5.03 µM | > 50 µM | > 50 µM | > 50 µM | > 50 µM | > 50 µM | 7.16 µM | > 50 µM | 49.5 µM | > 50 µM | 15 µM | > 50 µM | > 50 µM | > 50 µM
